# According to article PMC11672637, “7-O-Carboxylic Acid-Substituted 3-O-Alkyl Difluoroquercetin; An Aztreonam-Potentiating Agent Against Carbapenemase-Producing Pseudomonas aeruginosa Through Simultaneous Inhibition of Metallo-β-Lactamase and Efflux Pump” (Antibiotics, 2024):
# Like-named read-outs stand apart in the source and are kept apart here.
# Key:
# [1] = system: PA-035, blaGES; assay: MIC / checkerboard with ATM; assay type: cell-based, P. aeruginosa; settings: for MIC: Pseudomonas aeruginosa, read-out: MIC of ATM with 5, PA-035
# [2] = system: PA-025, blaNDM; assay: MIC / checkerboard with ATM; assay type: cell-based, P. aeruginosa; settings: for MIC: Pseudomonas aeruginosa, read-out: MIC of ATM with 5, PA-025
# [3] = system: efflux pump activity in P. aeruginosa (PA-017, blaNDM); assay: EtBr accumulation, inhibition of efflux pump activity; assay type: cell-based; settings: EtBr fluorescence compared with positive control CCCP
# Method: The NDM-producing P. aeruginosa clinical isolate (PA-017, blaNDM) (5 mL, LB medium) was grown to reach the mid-log phase. After centrifugation at 3500 rpm for 15 min, the bacterial pellet was washed twice with PBS and resuspended to OD600 = 0.3 in PBS. To each well of a flat-bottomed black 96-well plate, 182 µL of the bacterial suspension, 4 µL of glucose [final concentration = 0.4% (w/v)], 4 µL of the synthesized compounds or positive control CCCP, and 10 µL of EtBr (final concentration = 1 µg/mL) were added. The plate was incubated at 37 °C, and fluorescence emission from EtBr (λex 480 nm/λem 630 nm) was recorded every 2 min (for 60 min) using a Cytation 5 imaging multi-mode reader (BioTek Instruments, Inc., Winooski, VT, USA).
# [4] = system: All CPPA (n = 26); assay: MIC distribution over clinical isolates; assay type: cell-based, P. aeruginosa; settings: for inhibition at 1 µg/mL / inhibition at 2 µg/mL / inhibition at 4 µg/mL / inhibition at 8 µg/mL / inhibition at 16 µg/mL / inhibition at 32 µg/mL / inhibition at 64 µg/mL / MIC50 / MIC90: Pseudomonas aeruginosa; for inhibition at 1 µg/mL: read-out: Cumulative % inhibition by ATM, 5 at 1 mg/L; for inhibition at 2 µg/mL: read-out: Cumulative % inhibition by ATM, 5 at 2 mg/L; for inhibition at 4 µg/mL: read-out: Cumulative % inhibition by ATM, 5 at 4 mg/L; for inhibition at 8 µg/mL: read-out: Cumulative % inhibition by ATM, 5 at 8 mg/L; for inhibition at 16 µg/mL: read-out: Cumulative % inhibition by ATM, 5 at 16 mg/L; for inhibition at 32 µg/mL: read-out: Cumulative % inhibition by ATM, 5 at 32 mg/L; for inhibition at 64 µg/mL: read-out: Cumulative % inhibition by ATM, 5 at 64 mg/L
smiles,measurement,setting,value
"CC(C)(C)CCOc1c(-c2ccc(F)c(F)c2)oc2cc(OCC(=O)O)cc(O)c2c1=O [Compound 5, 2-((2-(3,4-Difluorophenyl)-3-(3,3-dimethylbutoxy)-5-hydroxy-4-oxo-4H-chromen-7-yl)oxy)acetic Acid]",Concentrations of ATM and 5 at lowest FICI (ATM/5),[1]; PA-035,2/8
same,Lowest FICI (ATM/5),[1]; PA-035,0.27
same,Susceptibility to ATM,"[1]; PA-035, ATM/5","S (S (sensitive, MIC ≤ 8 mg/L))"
same,FD (fold decrease in MIC of ATM with 5),"[1]; PA-035, lowest-FICI combination",4
same,MIC,[1]; 5 at 1 mg/L,8 µg/mL
same,MIC,[1]; 5 at 2 mg/L,4 µg/mL
same,MIC,[1]; 5 at 4 mg/L,4 µg/mL
same,MIC,[1]; 5 at 8 mg/L,2 µg/mL
same,MIC,[1]; 5 at 16 mg/L,2 µg/mL
same,MIC,[1]; 5 at 32 mg/L,2 µg/mL
same,MIC,[1]; 5 at 64 mg/L,2 µg/mL
same,Activity (FICI class),[2]; PA-025,"S (S (Synergy, FICI ≤ 0.5))"
same,Concentrations of ATM and 5 at lowest FICI (ATM/5),[2]; PA-025,4/16
same,Lowest FICI (ATM/5),[2]; PA-025,0.28
same,Minimum concentration of 5 to make sensitive to ATM,[2]; PA-025,4 mg/L
same,Susceptibility to ATM,"[2]; PA-025, ATM/5","S (S (sensitive, MIC ≤ 8 mg/L))"
same,FD (fold decrease in MIC of ATM with 5),"[2]; PA-025, lowest-FICI combination",4
same,MIC,[2]; 5 at 1 mg/L,16 µg/mL
same,MIC,[2]; 5 at 2 mg/L,16 µg/mL
same,MIC,[2]; 5 at 4 mg/L,8 µg/mL
same,MIC,[2]; 5 at 8 mg/L,8 µg/mL
same,MIC,[2]; 5 at 16 mg/L,4 µg/mL
same,MIC,[2]; 5 at 32 mg/L,2 µg/mL
same,MIC,[2]; 5 at 64 mg/L,2 µg/mL
same,EPi (inhibition of efflux pump activity),[3],↑ ^g
same,Clinical strains sensitized to ATM (MIC ≤ 8 mg/L) by combination with 5,[4],25 out of 26
same,CPPA isolates in which ATM/5 combination showed synergistic effects,[4]; 22 out of 26 isolates,85%
same,inhibition at 1 µg/mL,[4]; ATM 0.5 mg/L,0%
same,inhibition at 1 µg/mL,[4]; ATM 1 mg/L,4%
same,inhibition at 1 µg/mL,[4]; ATM 2 mg/L,19%
same,inhibition at 1 µg/mL,[4]; ATM 4 mg/L,35%
same,inhibition at 1 µg/mL,[4]; ATM 8 mg/L,46%
same,inhibition at 1 µg/mL,[4]; ATM 16 mg/L,81%
same,inhibition at 1 µg/mL,[4]; ATM 32 mg/L,100%
same,inhibition at 1 µg/mL,[4]; ATM 64 mg/L,100%
same,inhibition at 2 µg/mL,[4]; ATM 0.5 mg/L,4%
same,inhibition at 2 µg/mL,[4]; ATM 1 mg/L,4%
same,inhibition at 2 µg/mL,[4]; ATM 2 mg/L,23%
same,inhibition at 2 µg/mL,[4]; ATM 4 mg/L,38%
same,inhibition at 2 µg/mL,[4]; ATM 8 mg/L,46%
same,inhibition at 2 µg/mL,[4]; ATM 16 mg/L,92%
same,inhibition at 2 µg/mL,[4]; ATM 32 mg/L,100%
same,inhibition at 2 µg/mL,[4]; ATM 64 mg/L,100%
same,inhibition at 4 µg/mL,[4]; ATM 0.5 mg/L,4%
same,inhibition at 4 µg/mL,[4]; ATM 1 mg/L,8%
same,inhibition at 4 µg/mL,[4]; ATM 2 mg/L,31%
same,inhibition at 4 µg/mL,[4]; ATM 4 mg/L,46%
same,inhibition at 4 µg/mL,[4]; ATM 8 mg/L,81%
same,inhibition at 4 µg/mL,[4]; ATM 16 mg/L,100%
same,inhibition at 4 µg/mL,[4]; ATM 32 mg/L,100%
same,inhibition at 4 µg/mL,[4]; ATM 64 mg/L,100%
same,inhibition at 8 µg/mL,[4]; ATM 0.5 mg/L,4%
same,inhibition at 8 µg/mL,[4]; ATM 1 mg/L,19%
same,inhibition at 8 µg/mL,[4]; ATM 2 mg/L,38%
same,inhibition at 8 µg/mL,[4]; ATM 4 mg/L,69%
same,inhibition at 8 µg/mL,[4]; ATM 8 mg/L,88%
same,inhibition at 8 µg/mL,[4]; ATM 16 mg/L,100%
same,inhibition at 8 µg/mL,[4]; ATM 32 mg/L,100%
same,inhibition at 8 µg/mL,[4]; ATM 64 mg/L,100%
same,inhibition at 16 µg/mL,[4]; ATM 0.5 mg/L,4%
same,inhibition at 16 µg/mL,[4]; ATM 1 mg/L,27%
same,inhibition at 16 µg/mL,[4]; ATM 2 mg/L,50%
same,inhibition at 16 µg/mL,[4]; ATM 4 mg/L,81%
same,inhibition at 16 µg/mL,[4]; ATM 8 mg/L,96%
same,inhibition at 16 µg/mL,[4]; ATM 16 mg/L,100%
same,inhibition at 16 µg/mL,[4]; ATM 32 mg/L,100%
same,inhibition at 16 µg/mL,[4]; ATM 64 mg/L,100%
same,inhibition at 32 µg/mL,[4]; ATM 0.5 mg/L,4%
same,inhibition at 32 µg/mL,[4]; ATM 1 mg/L,35%
same,inhibition at 32 µg/mL,[4]; ATM 2 mg/L,54%
same,inhibition at 32 µg/mL,[4]; ATM 4 mg/L,88%
same,inhibition at 32 µg/mL,[4]; ATM 8 mg/L,96%
same,inhibition at 32 µg/mL,[4]; ATM 16 mg/L,100%
same,inhibition at 32 µg/mL,[4]; ATM 32 mg/L,100%
same,inhibition at 32 µg/mL,[4]; ATM 64 mg/L,100%
same,inhibition at 64 µg/mL,[4]; ATM 0.5 mg/L,4%
same,inhibition at 64 µg/mL,[4]; ATM 1 mg/L,38%
same,inhibition at 64 µg/mL,[4]; ATM 2 mg/L,58%
same,inhibition at 64 µg/mL,[4]; ATM 4 mg/L,92%
same,inhibition at 64 µg/mL,[4]; ATM 8 mg/L,96%
same,inhibition at 64 µg/mL,[4]; ATM 16 mg/L,100%
same,inhibition at 64 µg/mL,[4]; ATM 32 mg/L,100%
same,inhibition at 64 µg/mL,[4]; ATM 64 mg/L,100%
same,MIC50,"[4]; read-out: MIC50 of ATM, 5 at 1 mg/L",16 µg/mL
same,MIC50,"[4]; read-out: MIC50 of ATM, 5 at 2 mg/L",16 µg/mL
same,MIC50,"[4]; read-out: MIC50 of ATM, 5 at 4 mg/L",8 µg/mL
same,MIC50,"[4]; read-out: MIC50 of ATM, 5 at 8 mg/L",4 µg/mL
same,MIC50,"[4]; read-out: MIC50 of ATM, 5 at 16 mg/L",4 µg/mL
same,MIC50,"[4]; read-out: MIC50 of ATM, 5 at 32 mg/L",2 µg/mL
same,MIC50,"[4]; read-out: MIC50 of ATM, 5 at 64 mg/L",2 µg/mL
same,MIC90,"[4]; read-out: MIC90 of ATM, 5 at 1 mg/L",32 µg/mL
same,MIC90,"[4]; read-out: MIC90 of ATM, 5 at 2 mg/L",32 µg/mL
same,MIC90,"[4]; read-out: MIC90 of ATM, 5 at 4 mg/L",16 µg/mL
same,MIC90,"[4]; read-out: MIC90 of ATM, 5 at 8 mg/L",16 µg/mL
same,MIC90,"[4]; read-out: MIC90 of ATM, 5 at 16 mg/L",8 µg/mL
same,MIC90,"[4]; read-out: MIC90 of ATM, 5 at 32 mg/L",8 µg/mL
same,MIC90,"[4]; read-out: MIC90 of ATM, 5 at 64 mg/L",8 µg/mL
